Here are results for 22 compounds from patent US11420958B2, “Aryl and heteroaryl substituted indole compounds” (BRISTOL-MYERS SQUIBB COMPANY, priority 2017, dated 2022).

Format in all cases: cell-based
For one experiment, the target named is human TLR7 (Homo sapiens (Human), UniProt Q9NYK1). The experiment can be described thus: TLR7 inhibition reporter assay (HEK-Blue, SEAP). The settings on record: HEK-Blue cells overexpressing human TLR7, gardiquimod 7.5 μM stimulation. As for the experimental part: (§1) TLR7/8/9 Inhibition Reporter Assays
Chain of human TLR7 (Q9NYK1 27-1049): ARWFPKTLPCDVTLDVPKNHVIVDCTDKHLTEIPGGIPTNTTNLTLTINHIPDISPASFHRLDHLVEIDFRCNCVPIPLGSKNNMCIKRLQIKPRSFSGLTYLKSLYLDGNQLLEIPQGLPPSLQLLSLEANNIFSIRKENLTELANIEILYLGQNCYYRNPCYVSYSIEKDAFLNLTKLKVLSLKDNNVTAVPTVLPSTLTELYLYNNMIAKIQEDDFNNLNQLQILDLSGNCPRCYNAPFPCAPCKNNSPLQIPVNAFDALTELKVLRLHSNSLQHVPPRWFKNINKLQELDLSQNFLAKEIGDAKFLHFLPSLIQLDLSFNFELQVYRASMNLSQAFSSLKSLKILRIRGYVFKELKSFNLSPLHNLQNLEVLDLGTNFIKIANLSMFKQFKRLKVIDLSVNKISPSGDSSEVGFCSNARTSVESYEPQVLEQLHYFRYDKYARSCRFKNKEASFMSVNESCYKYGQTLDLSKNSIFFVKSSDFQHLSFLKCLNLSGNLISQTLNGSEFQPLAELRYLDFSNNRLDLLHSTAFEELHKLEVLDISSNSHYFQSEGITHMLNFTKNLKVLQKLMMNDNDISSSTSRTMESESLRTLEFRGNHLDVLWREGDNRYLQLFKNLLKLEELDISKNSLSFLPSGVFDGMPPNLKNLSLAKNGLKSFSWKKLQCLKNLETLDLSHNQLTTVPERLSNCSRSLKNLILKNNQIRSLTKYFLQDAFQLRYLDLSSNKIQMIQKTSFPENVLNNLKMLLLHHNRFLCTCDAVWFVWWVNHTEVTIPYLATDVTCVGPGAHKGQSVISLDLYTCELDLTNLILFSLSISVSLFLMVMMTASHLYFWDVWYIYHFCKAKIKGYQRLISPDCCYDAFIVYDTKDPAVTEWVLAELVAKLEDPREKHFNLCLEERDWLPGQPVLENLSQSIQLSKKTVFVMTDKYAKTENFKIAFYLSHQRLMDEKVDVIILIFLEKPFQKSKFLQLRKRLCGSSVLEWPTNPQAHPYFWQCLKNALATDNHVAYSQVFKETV
(§2) HEK-Blue™-cells (Invivogen) overexpressing human TLR7, TLR8 or TLR9 receptors were used for screening inhibitors of these receptors using an inducible SEAP (secreted embryonic alkaline phosphatase) reporter gene under the control of the IFN-β minimal promoter fused to five NF-κc Band AP-1-binding sites. Briefly, cells are seeded into Greiner 384 well plates (15000 cells per well for TLR7, 20,000 for TLR8 and 25,000 for TLR9) and then treated with test compounds in DMSO to yield a final dose response concentration range of 0.05 nM-50 μM. After a 30 minute compound pre-treatment at room temperature, the cells are then stimulated with a TLR7 ligand (gardiquimod at a final concentration of 7.5 μM), TLR8 ligand (R848 at a final concentration of 15.9 μM) or TLR9 ligand (ODN2006 at final concentration of 5 nM) to activate NF-κB and AP-1 which induce the production of SEAP. After a 22 hour incubation at 37° C., 5% CO2, SEAP levels are determined with the addition of HEK-Bue™ Detection reagent (Invivogen), a cell culture medium that allows for detection of SEAP, according to manufacturer's specifications. The percent inhibition is determined as the % reduction in the HEK-Blue signal present in wells treated with agonist plus DMSO alone compared to wells treated with a known inhibitor.
For orientation: A reporter such as luciferase makes a cellular process visible.

Another experiment has as its target human TLR8 (Homo sapiens (Human), UniProt Q9NR97). The experiment can be described thus: TLR8 inhibition reporter assay (HEK-Blue, SEAP). The settings on record: HEK-Blue cells overexpressing human TLR8, R848 15.9 μM stimulation. As for the experimental part:
as §1, §2

A further experiment concerns the target human TLR9 (Homo sapiens (Human), UniProt Q9NR96). The experiment can be described thus: TLR9 inhibition reporter assay (HEK-Blue, SEAP). Conditions: HEK-Blue cells overexpressing human TLR9, ODN2006 5 nM stimulation. Here is the method: as §1, §2

Some results are limits rather than exact numbers.

Chain of human TLR8 (Q9NR97 27-1041): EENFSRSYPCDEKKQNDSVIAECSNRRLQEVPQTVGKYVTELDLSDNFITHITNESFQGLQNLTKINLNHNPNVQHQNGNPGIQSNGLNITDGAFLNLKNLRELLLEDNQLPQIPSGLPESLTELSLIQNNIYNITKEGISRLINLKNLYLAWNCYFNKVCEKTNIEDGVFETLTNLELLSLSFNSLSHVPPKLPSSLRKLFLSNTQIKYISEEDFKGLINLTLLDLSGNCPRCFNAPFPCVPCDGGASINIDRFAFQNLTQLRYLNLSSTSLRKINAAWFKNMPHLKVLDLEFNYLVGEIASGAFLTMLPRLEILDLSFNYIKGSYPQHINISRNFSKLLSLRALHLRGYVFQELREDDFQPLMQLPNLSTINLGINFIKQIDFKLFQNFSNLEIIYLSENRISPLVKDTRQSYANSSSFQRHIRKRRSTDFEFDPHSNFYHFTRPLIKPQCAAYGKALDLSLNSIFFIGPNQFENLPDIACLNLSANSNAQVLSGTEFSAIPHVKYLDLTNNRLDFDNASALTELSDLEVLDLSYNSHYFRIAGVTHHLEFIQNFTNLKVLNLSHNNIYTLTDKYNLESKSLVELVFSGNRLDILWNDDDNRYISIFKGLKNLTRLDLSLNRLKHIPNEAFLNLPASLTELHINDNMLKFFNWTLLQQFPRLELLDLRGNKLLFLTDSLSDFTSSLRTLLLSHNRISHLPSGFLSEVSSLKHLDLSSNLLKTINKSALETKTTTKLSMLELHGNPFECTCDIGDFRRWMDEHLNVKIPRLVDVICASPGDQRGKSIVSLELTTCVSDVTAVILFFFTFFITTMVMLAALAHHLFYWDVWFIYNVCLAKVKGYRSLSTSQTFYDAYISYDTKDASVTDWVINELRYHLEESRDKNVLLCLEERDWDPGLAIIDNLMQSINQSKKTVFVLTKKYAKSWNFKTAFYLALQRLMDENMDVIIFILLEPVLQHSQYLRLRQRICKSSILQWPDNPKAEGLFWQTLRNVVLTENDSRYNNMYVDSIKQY
Chain of human TLR9 (Q9NR96 26-1032): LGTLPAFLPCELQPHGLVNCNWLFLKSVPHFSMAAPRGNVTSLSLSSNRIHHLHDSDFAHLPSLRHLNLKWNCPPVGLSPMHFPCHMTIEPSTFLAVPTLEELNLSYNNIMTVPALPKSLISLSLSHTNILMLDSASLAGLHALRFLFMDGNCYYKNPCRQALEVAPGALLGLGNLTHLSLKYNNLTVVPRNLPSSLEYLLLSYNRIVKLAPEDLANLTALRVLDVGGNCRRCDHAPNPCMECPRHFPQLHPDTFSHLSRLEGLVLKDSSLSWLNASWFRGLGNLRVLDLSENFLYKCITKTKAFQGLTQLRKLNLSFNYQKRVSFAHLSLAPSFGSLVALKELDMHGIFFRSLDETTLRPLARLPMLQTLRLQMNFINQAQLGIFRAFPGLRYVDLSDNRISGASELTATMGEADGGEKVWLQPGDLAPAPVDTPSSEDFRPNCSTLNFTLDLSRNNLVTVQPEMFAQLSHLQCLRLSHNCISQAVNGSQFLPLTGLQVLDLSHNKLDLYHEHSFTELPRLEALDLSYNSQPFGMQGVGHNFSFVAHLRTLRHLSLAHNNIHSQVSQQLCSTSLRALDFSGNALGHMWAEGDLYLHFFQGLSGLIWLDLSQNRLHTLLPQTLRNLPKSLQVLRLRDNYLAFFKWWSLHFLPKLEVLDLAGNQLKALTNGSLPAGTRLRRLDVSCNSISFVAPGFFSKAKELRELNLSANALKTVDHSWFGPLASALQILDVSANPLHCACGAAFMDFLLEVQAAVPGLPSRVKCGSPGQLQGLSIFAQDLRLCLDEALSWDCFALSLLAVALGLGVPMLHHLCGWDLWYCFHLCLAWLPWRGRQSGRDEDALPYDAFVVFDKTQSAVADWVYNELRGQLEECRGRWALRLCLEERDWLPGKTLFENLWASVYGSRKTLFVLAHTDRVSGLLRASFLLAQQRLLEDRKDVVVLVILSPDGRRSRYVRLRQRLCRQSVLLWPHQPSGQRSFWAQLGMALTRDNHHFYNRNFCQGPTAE

`COc1ccc(-c2[nH]c3ccc(-c4cccc(C(=O)N5CC6CNCC6C5)c4)cc3c2C(C)C)cc1OC` (stereo not drawn) [Example 9, (3-(2-(3,4-dimethoxyphenyl)-3-isopropyl-1H-indol-5-yl)phenyl)(hexahydropyrrolo[3,4-c]pyrrol-2(1H)-yl)methanone]: the IC50 (in general, the concentration at which inhibition is half-maximal) stood at 0.108 µM on human TLR7, 0.0041 µM at human TLR8 and 0.744 µM at human TLR9.
On the same counts, the results for `COc1ccc(-c2[nH]c3ccc(-c4ccnc(C(=O)N5CCCN(C)CC5)c4)cc3c2C(C)C)cc1OC` [Example 10, (4-(2-(3,4-dimethoxyphenyl)-3-isopropyl-1H-indol-5-yl)pyridin-2-yl)(4-methyl-1,4-diazepan-1-yl)methanone] are 0.035 µM, 0.006 µM and 0.673 µM.
As to `COc1ccc(-c2[nH]c3ccc(-c4ccnc(C(=O)NC5CCN(C(C)C)CC5)c4)cc3c2C(C)C)cc1OC` [Example 11, 4-(2-(3,4-dimethoxyphenyl)-3-isopropyl-1H-indol-5-yl)-N-(1-isopropylpiperidin-4-yl)picolinamide], the IC50 at human TLR7 came to 0.022 µM; against human TLR8, 0.018 µM; against human TLR9, 0.665 µM.
On the same counts, the results for `COc1ccc(-c2[nH]c3ccc(-c4ccnc(C(=O)NC5CCC(N)CC5)c4)cc3c2C(C)C)cc1OC` (stereo not drawn) [Example 12, N-(4-aminocyclohexyl)-4-(2-(3,4-dimethoxyphenyl)-3-isopropyl-1H-indol-5-yl)picolinamide] are 0.069 µM, 0.037 µM and 2.16 µM.
On the same counts, the results for `COc1ccc(-c2[nH]c3ccc(-c4ccnc(C(=O)N[C@H]5CC[C@H](C(C)(C)O)CC5)c4)cc3c2C(C)C)cc1OC` [Example 13, 4-(2-(3,4-dimethoxyphenyl)-3-isopropyl-1H-indol-5-yl)-N-((1r,4r)-4-(2-hydroxypropan-2-yl)cyclohexyl)picolinamide] are 1.24 µM, 1.01 µM and more than 50 µM.
On the same counts, the results for `COc1ccc(-c2[nH]c3ccc(-c4ccnc(C(=O)N5CCNCC5)c4)cc3c2C(C)C)cc1OC` [Example 14, (4-(2-(3,4-dimethoxyphenyl)-3-isopropyl-1H-indol-5-yl)pyridin-2-yl)(piperazin-1-yl)methanone] are 1.07 µM, 1.04 µM and more than 50 µM.
For `Cc1cc(-c2[nH]c3ccc(-c4cccc(C(=O)N5CC6CNCC6C5)c4)cc3c2C(C)C)ccn1` (stereo not drawn) [Example 15, (hexahydropyrrolo[3,4-c]pyrrol-2(1H)-yl)(3-(3-isopropyl-2-(2-methylpyridin-4-yl)-1H-indol-5-yl)phenyl)methanone], the IC50 on human TLR7 came out at 0.027 µM; against human TLR8, 0.0068 µM; against human TLR9, 0.738 µM.
For `Cc1cc(-c2[nH]c3ccc(-c4cccc(C(=O)NC5CCN(C(C)C)CC5)c4)cc3c2C(C)C)ccn1` [Example 16, 3-(3-isopropyl-2-(2-methylpyridin-4-yl)-1H-indol-5-yl)-N-(1-isopropylpiperidin-4-yl)benzamide] the same measures were 0.149 µM, 0.039 µM and 14 µM.
For `COc1ccc(-c2[nH]c3ccc(-c4nnc(C5CCN(CC(=O)N(C)C)CC5)o4)cc3c2C(C)C)cc1OC` [Example 17, 2-(4-(5-(2-(3,4-dimethoxyphenyl)-3-isopropyl-1H-indol-5-yl)-1,3,4-oxadiazol-2-yl)piperidin-1-yl)-N,N-dimethylacetamide] the same measures were 0.108 µM, 0.017 µM and 6.44 µM.
For `CNCC(=O)N1CCC(c2nnc(-c3ccc4[nH]c(-c5ccc(OC)c(OC)c5)c(C(C)C)c4c3)o2)CC1` [Example 18, 1-(4-(5-(2-(3,4-dimethoxyphenyl)-3-isopropyl-1H-indol-5-yl)-1,3,4-oxadiazol-2-yl)piperidin-1-yl)-2-(methylamino)ethan-1-one] the same measures were 0.042 µM, 0.0095 µM and 0.625 µM.
Regarding `COc1ccc(-c2[nH]c3ccc(-c4nnc(C5CCN(C(=O)OC(C)(C)C)CC5)o4)cc3c2C(C)C)cc1OC` [Example 19, tert-butyl 4-(5-(2-(3,4-dimethoxyphenyl)-3-isopropyl-1H-indol-5-yl)-1,3,4-oxadiazol-2-yl)piperidine-1-carboxylate], the IC50 against human TLR7 was 2.51 µM; on human TLR8 it was 0.484 µM; on human TLR9, more than 50 µM.
For `COc1ccc(-c2[nH]c3ccc(-c4nnc(C5CCN(C)CC5)o4)cc3c2C(C)C)cc1OC` [Example 20, 2-(2-(3,4-dimethoxyphenyl)-3-isopropyl-1H-indol-5-yl)-5-(1-methylpiperidin-4-yl)-1,3,4-oxadiazole] the same measures were 0.031 µM, 0.0048 µM and 0.821 µM.
For `COc1ccc(-c2[nH]c3ccc(-c4nnc(C5CCN(C6CCN(C)CC6)CC5)o4)cc3c2C(C)C)cc1OC` [Example 21, 2-(2-(3,4-dimethoxyphenyl)-3-isopropyl-1H-indol-5-yl)-5-(1′-methyl-[1,4′-bipiperidin]-4-yl)-1,3,4-oxadiazole] the same measures were 0.06 µM, 0.02 µM and 0.626 µM.
For `COc1ccc(-c2[nH]c3ccc(-c4nnc(C5CCN(C6CCN(C(C)C)CC6)CC5)o4)cc3c2C(C)C)cc1OC` [Example 22, 2-(2-(3,4-dimethoxyphenyl)-3-isopropyl-1H-indol-5-yl)-5-(1′-isopropyl-[1,4′-bipiperidin]-4-yl)-1,3,4-oxadiazole], the IC50 against human TLR7 is 0.036 µM; against human TLR8, 0.011 µM; against human TLR9 it was 0.266 µM.
On the same counts, the results for `CNC(=O)CN1CCC(c2nnc(-c3ccc4[nH]c(-c5ccc(OC)c(OC)c5)c(C(C)C)c4c3)o2)CC1` [Example 23, 2-(4-(5-(2-(3,4-dimethoxyphenyl)-3-isopropyl-1H-indol-5-yl)-1,3,4-oxadiazol-2-yl)piperidin-1-yl)-N-methylacetamide] are 0.207 µM, 0.043 µM and 6.1 µM.
On the same counts, the results for `CNCCN1CCC(c2nnc(-c3ccc4[nH]c(-c5ccc(OC)c(OC)c5)c(C(C)C)c4c3)o2)CC1` [Example 24, 2-(4-(5-(2-(3,4-dimethoxyphenyl)-3-isopropyl-1H-indol-5-yl)-1,3,4-oxadiazol-2-yl)piperidin-1-yl)-N-methylethan-1-amine] are 0.056 µM, 0.0037 µM and 0.179 µM.
Turning to `COc1ccc(-c2[nH]c3ccc(-c4cccc(C(=O)NCCC5CCCN5C)c4)cc3c2CC(F)(F)F)cc1OC` (stereo not drawn) [Example 25, 3-(2-(3,4-dimethoxyphenyl)-3-(2,2,2-trifluoroethyl)-1H-indol-5-yl)-N-(2-(1-methylpyrrolidin-2-yl)ethyl)benzamide], the 50% inhibitory concentration (IC50) stood at 0.19 µM against human TLR7, 0.088 µM on human TLR8 and 1.38 µM against human TLR9.
On the same counts, the results for `COc1ccc(-c2[nH]c3ccc(-c4cccc(C(=O)NCCNC(C)=O)c4)cc3c2CC(F)(F)F)cc1OC` [Example 26, N-(2-acetamidoethyl)-3-(2-(3,4-dimethoxyphenyl)-3-(2,2,2-trifluoroethyl)-1H-indol-5-yl)benzamide] are 1 µM, 0.073 µM and 32.9 µM.
As to `COc1ccc(-c2[nH]c3ccc(-c4cccc(C(=O)NCC#N)c4)cc3c2CC(F)(F)F)cc1OC` [Example 27, N-(cyanomethyl)-3-(2-(3,4-dimethoxyphenyl)-3-(2,2,2-trifluoroethyl)-1H-indol-5-yl)benzamide], the IC50 is 0.744 µM on human TLR7, 0.082 µM on human TLR8 and 41.1 µM on human TLR9.
On the same counts, the results for `COc1ccc(-c2[nH]c3ccc(-c4cccc(C(=O)NCC(N)=O)c4)cc3c2CC(F)(F)F)cc1OC` [Example 28, N-(2-amino-2-oxoethyl)-3-(2-(3,4-dimethoxyphenyl)-3-(2,2,2-trifluoroethyl)-1H-indol-5-yl)benzamide] are 0.587 µM, 0.094 µM and 32.6 µM.
On the same counts, the results for `COc1ccc(-c2[nH]c3ccc(-c4cccc(C(=O)NCCN5CCOCC5)c4)cc3c2CC(F)(F)F)cc1OC` [Example 29, 3-(2-(3,4-dimethoxyphenyl)-3-(2,2,2-trifluoroethyl)-1H-indol-5-yl)-N-(2-morpholinoethyl)benzamide] are 0.416 µM, 0.055 µM and 7.29 µM.
In the case of `COc1ccc(-c2[nH]c3ccc(-c4cccc(C(=O)N5CCN(CC(=O)NC(C)C)CC5)c4)cc3c2CC(F)(F)F)cc1OC` [Example 30, 2-(4-(3-(2-(3,4-dimethoxyphenyl)-3-(2,2,2-trifluoroethyl)-1H-indol-5-yl)benzoyl)piperazin-1-yl)-N-isopropylacetamide], the IC50 is 1.99 µM at human TLR7, 0.165 µM against human TLR8 and 14.3 µM against human TLR9.
